Results on 44 compounds are retold here after US8716475B2, “2-aminopyrimidine modulators of the histamine H4 receptor” (Janssen Pharmaceutica NV, priority 2007, dated 2014).

Molecules are shown by their SMILES. Bounds are passed on as bounds.

For the first assay, the target named is T1, human H4 receptor (Homo sapiens, UniProt Q9H3N8).
T1 construct: expressed in transfected cells
T1 sequence (Q9H3N8 whole entry): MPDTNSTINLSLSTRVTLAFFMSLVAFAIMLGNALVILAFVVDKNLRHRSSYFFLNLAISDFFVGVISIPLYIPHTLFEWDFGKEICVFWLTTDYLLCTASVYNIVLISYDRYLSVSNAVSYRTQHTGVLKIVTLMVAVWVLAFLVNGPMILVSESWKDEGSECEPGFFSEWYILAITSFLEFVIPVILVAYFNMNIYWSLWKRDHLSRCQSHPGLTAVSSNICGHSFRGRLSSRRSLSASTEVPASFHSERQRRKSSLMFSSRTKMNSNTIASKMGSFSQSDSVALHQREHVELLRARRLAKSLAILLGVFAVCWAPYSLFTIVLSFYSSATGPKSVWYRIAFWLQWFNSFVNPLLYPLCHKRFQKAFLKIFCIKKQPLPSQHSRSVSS
Description: Binding Assay on Recombinant Human Histamine H4 Receptor. Conditions: Table 1; [3H] histamine competition binding, membranes of SK-N-MC cells transfected with human H4 receptor; average of results. As for the experimental part: Binding Assay on Recombinant Human Histamine H4 Receptor.
Cell pellets from SK-N-MC cells stably or transiently transfected with human H4 receptor were used for the binding assays. Cell pellets were homogenized in 50 mM Tris/5 mM EDTA buffer and supernatants from an 800g spin were collected and recentrifuged at 30,000g for 30 min. Pellets were rehomogenized in 50 mM Tris/5 mM EDTA buffer. […] Compounds were tested in free base, hydrochloride salt, or trifluoroacetic acid form. Nonspecific binding was defined with 100 μM cold histamine. […] Membranes were harvested by rapid filtration using the 96 well Brandel system or a cell harvester using a Whatman GF/C filter or filter plates treated with 0.5% polyethylenimine (PEI), and washed 4 times with ice-cold 50 mM Tris/5 mM EDTA buffer. Filters were then dried, mixed with scintillant and radioactive counts were determined. […] Data marked with an asterisk (*) were obtained by the cell harvester method. Where activity is shown as greater than (>) a particular value, the value is the highest concentration tested.
Turning to `CN[C@@H]1CCN(c2nc(N)nc3c2CCC3)C1` [Example 75, (R)-4-(3-Methylamino-pyrrolidin-1-yl)-6,7-dihydro-5H-cyclopentapyrimidin-2-ylamine], the Ki came out at 0.159 µM.

Staying with this assay, now noted: Table 2, data marked with an asterisk (*): obtained by the cell harvester method; [3H] histamine competition binding, SK-N-MC membranes.
For the compound `CC(C)c1cc(N2CCN(C)CC2)nc(N)n1` [Example 95, 4-Isopropyl-6-(4-methyl-piperazin-1-yl)-pyrimidin-2-ylamine], the Ki amounted to 0.008 µM.

As to `CCCCc1nc(N)nc(N2CC(N)C2)c1OC` [Example 103, 4-(3-Amino-azetidin-1-yl)-6-butyl-5-methoxy-pyrimidin-2-ylamine], the Ki turned out to be 0.022 µM.

Regarding `CCCCc1nc(N)nc(N2CC[C@@H](N)C2)c1OC` [Example 104, (R)-4-(3-Amino-pyrrolidin-1-yl)-6-butyl-5-methoxy-pyrimidin-2-ylamine], the Ki was determined as 0.096 µM. `CCCCc1nc(N)nc(N2CC[C@@H](NC)C2)c1OC` [Example 106, (R)-4-Butyl-5-methoxy-6-(3-methylamino-pyrrolidin-1-yl)-pyrimidin-2-ylamine]: the Ki came out at 0.039 µM.

Regarding `CCCCc1nc(N)nc(N(C)CCN)c1OC` [Example 109, N^4-(2-Amino-ethyl)-6-butyl-5-methoxy-N^4-methyl-pyrimidine-2,4-diamine], the Ki was 0.517 µM. On to `COc1c(C2CCCC2)nc(N)nc1N(C)CCN` [Example 115, N^4-(2-Amino-ethyl)-6-cyclopentyl-5-methoxy-N^4-methyl-pyrimidine-2,4-diamine], for which the Ki came out at 1.43 µM.

The assay is the same for the next values; noted with them: Table 2; [3H] histamine competition binding, membranes of SK-N-MC cells transfected with human H4 receptor; average of results.
Consider `Nc1nc(C2CCCC2)cc(N2C[C@H]3CCCN[C@H]3C2)n1` [Example 81, (R,R)-4-Cyclopentyl-6-(octahydro-pyrrolo[3,4-b]pyridin-6-yl)-pyrimidin-2-ylamine], for which the Ki is 0.002 µM. For `CN1C[C@@H]2CN(c3cc(C4CCCC4)nc(N)n3)C[C@@H]2C1` [Example 82, 4-Cyclopentyl-6-(cis-5-methyl-hexahydro-pyrrolo[3,4-c]pyrrol-2-yl)-pyrimidin-2-ylamine], the Ki stood at 0.025 µM. As to `Nc1nc(C2CCCC2)cc(N2C[C@H]3CCN[C@H]3C2)n1` [Example 83, (R,R)-4-Cyclopentyl-6-(hexahydro-pyrrolo[3,4-b]pyrrol-5-yl)-pyrimidin-2-ylamine], the Ki was 0.003 µM.

For the compound `Nc1nc(C2CCCC2)cc(N2CC(N)C2)n1` [Example 85, 4-(3-Amino-azetidin-1-yl)-6-cyclopentyl-pyrimidin-2-ylamine], the inhibitory constant (Ki) came out at 0.006 µM.

With `Nc1nc(C2CCCC2)cc(N2CC3CNCC3C2)n1` (centres unmarked) [Example 87, 4-Cyclopentyl-6-(hexahydro-pyrrolo[3,4-c]pyrrol-2-yl)-pyrimidin-2-ylamine], the inhibition constant (Ki) is 0.328 µM. Take `CC(C)c1cc(NCCN)nc(N)n1` [Example 89, (2-Amino-ethyl)-6-isopropyl-pyrimidine-2,4-diamine]: the inhibition constant (Ki) is 0.019 µM. In the case of `CC(C)c1cc(N2CC(N)C2)nc(N)n1` [Example 90, 4-(3-Amino-azetidin-1-yl)-6-isopropyl-pyrimidin-2-ylamine], the inhibitory constant (Ki) stood at 0.014 µM. In the case of `CC(C)c1cc(N2CCC3(CCCN3)C2)nc(N)n1` (centres unmarked) [Example 91, 4-(1,7-Diaza-spiro[4.4]non-7-yl)-6-isopropyl-pyrimidin-2-ylamine], the Ki came out at 0.084 µM.

`CC(C)c1cc(N(C)CCN)nc(N)n1` [Example 92, N^4-(2-Amino-ethyl)-6-isopropyl-N^4-methyl-pyrimidine-2,4-diamine]: the inhibitory constant (Ki) came out at 0.281 µM. For `CN1CCN(c2nc(N)nc3c2COCC3)CC1` [Example 96, 4-(4-Methyl-piperazin-1-yl)-7,8-dihydro-5H-pyrano[4,3-d]pyrimidin-2-ylamine], the Ki is 0.035 µM. Consider `Nc1nc2c(c(N3C[C@H]4CCCN[C@H]4C3)n1)COCC2` [Example 97, (R,R)-4-(Octahydro-pyrrolo[3,4-b]pyridin-6-yl)-7,8-dihydro-5H-pyrano[4,3-d]pyrimidin-2-ylamine], for which the Ki worked out at 0.02 µM.

Take `Nc1nc2c(c(N3CC[C@@H](N)C3)n1)COCC2` [Example 98, (R)-4-(3-Amino-pyrrolidin-1-yl)-7,8-dihydro-5H-pyrano[4,3-d]pyrimidin-2-ylamine]: the Ki amounted to 0.298 µM. As to `CN[C@@H]1CCN(c2nc(N)nc3c2COCC3)C1` [Example 99, (R)-4-(3-Methylamino-pyrrolidin-1-yl)-7,8-dihydro-5H-pyrano[4,3-d]pyrimidin-2-ylamine], the Ki came to 0.214 µM. For the compound `Nc1nc2c(c(N3CCNCC3)n1)COCC2` [Example 100, 4-piperazin-1-yl-7,8-dihydro-5H-pyrano[4,3-d]pyrimidin-2-ylamine], the Ki is 0.262 µM.

Turning to `CCCCc1nc(N)nc(N2CCNCC2)c1OC` [Example 101, 4-Butyl-5-methoxy-6-piperazin-1-yl-pyrimidin-2-ylamine], the Ki turned out to be 0.03 µM.

As for `CCCCc1nc(N)nc(N2CCCNCC2)c1OC` [Example 102, 4-Butyl-6-[1,4]diazepan-1-yl-5-methoxy-pyrimidin-2-ylamine], the Ki was 0.181 µM. On to `CCCCc1nc(N)nc(N2CC[C@H](N)C2)c1OC` [Example 105, (S)-4-(3-Amino-pyrrolidin-1-yl)-6-butyl-5-methoxy-pyrimidin-2-ylamine], for which the Ki amounted to 0.103 µM. The same measure, in the same setting: the figure for `CCCCc1nc(N)nc(N2CC[C@H](NC)C2)c1OC` [Example 107, (S)-4-Butyl-5-methoxy-6-(3-methylamino-pyrrolidin-1-yl)-pyrimidin-2-ylamine] is 0.104 µM; for `CCCCc1nc(N)nc(N2CCN(C)CC2)c1OC` [Example 108, 4-Butyl-5-methoxy-6-(4-methyl-piperazin-1-yl)-pyrimidin-2-ylamine] it is 0.084 µM; for `CCCCc1nc(N)nc(NCCN)c1OC` [Example 110, N^4-(2-Amino-ethyl)-6-butyl-5-methoxy-pyrimidine-2,4-diamine] it is 0.08 µM. On the same count and under the same terms, the figure for `COc1c(C2CCCC2)nc(N)nc1N1CC(N)C1` [Example 111, 4-(3-Amino-azetidin-1-yl)-6-cyclopentyl-5-methoxy-pyrimidin-2-ylamine] is 0.033 µM. Same read-out and setting: the same measure for `COc1c(C2CCCC2)nc(N)nc1N1CCCNCC1` [Example 112, 4-Cyclopentyl-6-[1,4]diazepan-1-yl-5-methoxy-pyrimidin-2-ylamine]: 0.046 µM; for `COc1c(C2CCCC2)nc(N)nc1N1CC[C@@H](N)C1` [Example 113, (R)-4-(3-Amino-pyrrolidin-1-yl)-6-cyclopentyl-5-methoxy-pyrimidin-2-ylamine]: 0.136 µM; for `CN[C@H]1CCN(c2nc(N)nc(C3CCCC3)c2OC)C1` [Example 114, (S)-4-Cyclopentyl-5-methoxy-6-(3-methylamino-pyrrolidin-1-yl)-pyrimidin-2-ylamine]: 0.071 µM.

`COc1c(NCCN)nc(N)nc1C1CCCC1` [Example 116, N^4-(2-Amino-ethyl)-6-cyclopentyl-5-methoxy-pyrimidine-2,4-diamine]: the Ki was determined as 0.064 µM. Turning to `COCc1cc(N2CCCNCC2)nc(N)n1` [Example 117, 4-[1,4]-Diazepan-1-yl-6-methoxymethyl-pyrimidin-2-ylamine], the Ki was 0.042 µM. Consider `COCc1cc(N2CC[C@H](N)C2)nc(N)n1` [Example 118, (S)-4-(3-Amino-pyrrolidin-1-yl)-6-methoxymethyl-pyrimidin-2-ylamine], for which the Ki worked out at 0.242 µM. Still for that read-out and setting: the same measure for `CN[C@H]1CCN(c2cc(COC)nc(N)n2)C1` [Example 119, (S)-4-Methoxymethyl-6-(3-methylamino-pyrrolidin-1-yl)-pyrimidin-2-ylamine]: 0.153 µM. Regarding `CN1C[C@@H]2CN(c3cc(C4CC4)nc(N)n3)C[C@@H]2C1` [Example 120, 4-Cyclopropyl-6-(cis-5-methyl-hexahydro-pyrrolo[3,4-c]pyrrol-2-yl)-pyrimidin-2-ylamine], the Ki stood at 0.113 µM. Take `Nc1nc(C2CC2)cc(N2CCNCC2)n1` [Example 121, 4-Cyclopropyl-6-piperazin-1-yl-pyrimidin-2-ylamine]: the Ki was 0.003 µM. Turning to `Nc1nc(C2CC2)cc(N2CC(N)C2)n1` [Example 122, 4-(3-Amino-azetidin-1-yl)-6-cyclopropyl-pyrimidin-2-ylamine], the Ki was 0.022 µM. Consider `Nc1nc(C2CC2)cc(N2CC[C@@H](N)C2)n1` [Example 123, (R)-4-(3-Amino-pyrrolidin-1-yl)-6-cyclopropyl-pyrimidin-2-ylamine], for which the Ki was determined as 0.004 µM. As to `Nc1nc(C2CC2)cc(N2C[C@H]3CNC[C@H]3C2)n1` [Example 124, 4-Cyclopropyl-6-(cis-hexahydro-pyrrolo[3,4-c]pyrrol-2-yl)-pyrimidin-2-ylamine], the Ki is over 10 µM. Regarding `CN[C@H]1CCN(c2cc(C(C)C)nc(N)n2)C1` [Example 125, (S)-4-Isopropyl-6-(3-methylamino-pyrrolidin-1-yl)-pyrimidin-2-ylamine], the Ki came to 0.007 µM. Regarding `CC(C)c1cc(N2CC[C@H](N)C2)nc(N)n1` [Example 126, (S)-4-(3-Amino-pyrrolidin-1-yl)-6-isopropyl-pyrimidin-2-ylamine], the Ki was 0.023 µM.

Take `CC(C)(C)c1cc(N2CC[C@@H](N)C2)nc(N)n1` [Example 127, (R)-4-(3-Amino-pyrrolidin-1-yl)-6-tert-butyl-pyrimidin-2-ylamine]: the Ki stood at 0.009 µM. `CN1C[C@@H]2CN(c3cc(C(C)(C)C)nc(N)n3)C[C@@H]2C1` [Example 128, 4-tert-Butyl-6-(cis-5-methyl-hexahydro-pyrrolo[3,4-c]pyrrol-2-yl)-pyrimidin-2-ylamine]: the Ki stood at 0.019 µM.

The Ki is a dissociation constant, usually derived from enzyme kinetics or from competition with a known ligand.
